# Data: patent US8952024B2, “Herbicidal pyrimidone derivatives” (E I du Pont de Nemours and Company, priority 2009, dated 2015)
# Key:
# Assay type in all cases: in vivo
# [1] = test system: large crabgrass (Digitaria sanguinalis); assay: Test B pre-/postemergence plant response
# In short: (§1)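 Seeds were sown in loam soil/sand blend and treated preemergence with compound in non-phytotoxic solvent mixture containing surfactant; postemergence sprays, same formulation, went onto plants 2 to 18 cm (1- to 4-leaf stage) in peat-based planting medium. Greenhouse 13 to 15 days, then visual rating versus untreated controls, 0 (no effect) to 100 (complete control).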
# [2] = test system: Italian ryegrass (Lolium multiflorum); assay: Test B pre-/postemergence plant response
# In short: as §1
# [3] = test system: yellow nutsedge (Cyperus esculentus); assay: Test B pre-/postemergence plant response
# In short: as §1
# [4] = test system: woolly cupgrass (Eriochloa villosa); assay: Test B pre-/postemergence plant response
# In short: as §1
# [5] = test system: downy bromegrass (Bromus tectorum); assay: Test B pre-/postemergence plant response
# In short: as §1
# [6] = test system: velvetleaf (Abutilon theophrasti); assay: Test B pre-/postemergence plant response
# In short: as §1
# [7] = test system: Surinam grass (Brachiaria decumbens); assay: Test B pre-/postemergence plant response
# In short: as §1
# [8] = test system: goosegrass (Eleusine indica); assay: Test B pre-/postemergence plant response
# In short: as §1
# [9] = test system: wheat (Triticum aestivum); assay: Test B pre-/postemergence plant response
# In short: as §1
# [10] = test system: blackgrass (Alopecurus myosuroides); assay: Test B pre-/postemergence plant response
# In short: as §1
# [11] = test system: morningglory (Ipomoea coccinea); assay: Test B pre-/postemergence plant response
# In short: as §1
# [12] = test system: barnyardgrass (Echinochloa crus-galli); assay: Test A pre-/postemergence plant response
# In short: (§2)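 Visual injury rating on a 0–100 scale (0 = no effect, 100 = complete control) was made versus untreated controls after about ten days in the greenhouse. Compounds, formulated in a non-phytotoxic solvent mix containing surfactant, were sprayed preemergence onto loam/sand soil and postemergence onto one- to two-leaf plants.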
# [13] = test system: pigweed (Amaranthus retroflexus); assay: Test A pre-/postemergence plant response
# In short: as §2
# [14] = Postemergence, 31 g ai/ha, 0 to 100 scale (0 no effect, 100 complete control)
# [15] = Postemergence, 125 g ai/ha, scale 0 to 100 (0 no effect, 100 complete control)
# [16] = Postemergence, 250 g ai/ha, scale 0 to 100 (0 no effect, 100 complete control), 13 to 15 days
# [17] = Postemergence, 62 g ai/ha, scale 0 to 100 (0 no effect, 100 complete control)
# [18] = Preemergence, 31 g ai/ha, scale 0 to 100 (0 no effect, 100 complete control)
# [19] = Preemergence, 62 g ai/ha, scale 0 to 100, 0 no effect, 100 complete control
# [20] = Preemergence, 125 g ai/ha, scale 0 to 100, 0 no effect, 100 complete control
# [21] = Preemergence, 250 g ai/ha, 0 to 100 scale
# [22] = Postemergence, 125 g ai/ha, 0 to 100 scale where 0 is no effect and 100 is complete control
# [23] = Postemergence, 500 g ai/ha, visual injury, 0 to 100 scale (0 no effect, 100 complete control), approx. ten days
# [24] = Preemergence, 125 g ai/ha, 0 to 100 scale, 0 = no effect, 100 = complete control
# [25] = Preemergence, 500 g ai/ha, 0 to 100 scale, 0 = no effect, 100 = complete control
smiles,measurement,setting,value
CCCCn1c(C2CC2)ncc(C(=O)C2=C(O)CCCC2=O)c1=O [Compound 193],"Plant response rating, Crabgrass, Large",[1]; [14],75
same,"Plant response rating, Crabgrass, Large",[1]; [15],98
same,"Plant response rating, Crabgrass, Large",[1]; [16],100
same,"Plant response rating, Crabgrass, Large",[1]; [17],90
same,"Plant response rating, Crabgrass, Large",[1]; [18],100
same,"Plant response rating, Crabgrass, Large",[1]; [19],100
same,"Plant response rating, Crabgrass, Large",[1]; [20],100
same,"Crabgrass, Large plant response rating",[1]; [21],100
same,"Plant response rating, Ryegrass, Italian",[2]; [14],5
same,"Plant response rating, Ryegrass, Italian",[2]; [16],45
same,"Plant response rating, Ryegrass, Italian",[2]; [17],40
same,"Plant response rating, Ryegrass, Italian",[2]; [18],0
same,"Plant response rating, Ryegrass, Italian",[2]; [19],0
same,"Plant response rating, Ryegrass, Italian",[2]; [20],25
same,"Ryegrass, Italian plant response rating",[2]; [21],45
same,"Plant response rating, Nutsedge, Yellow",[3]; [14],60
same,"Plant response rating, Nutsedge, Yellow",[3]; [15],75
same,"Plant response rating, Nutsedge, Yellow",[3]; [16],75
same,"Plant response rating, Nutsedge, Yellow",[3]; [17],65
same,"Plant response rating, Nutsedge, Yellow",[3]; [18],10
same,"Plant response rating, Nutsedge, Yellow",[3]; [19],65
same,"Plant response rating, Nutsedge, Yellow",[3]; [20],70
same,"Nutsedge, Yellow plant response rating",[3]; [21],90
same,"Plant response rating, Cupgrass, Woolly",[4]; [14],75
same,"Plant response rating, Cupgrass, Woolly",[4]; [15],95
same,"Plant response rating, Cupgrass, Woolly",[4]; [16],98
same,"Plant response rating, Cupgrass, Woolly",[4]; [17],85
same,"Plant response rating, Cupgrass, Woolly",[4]; [18],10
same,"Plant response rating, Cupgrass, Woolly",[4]; [19],70
same,"Plant response rating, Cupgrass, Woolly",[4]; [20],80
same,"Cupgrass, Woolly plant response rating",[4]; [21],90
same,"Plant response rating, Bromegrass, Downy",[5]; [14],10
same,"Plant response rating, Bromegrass, Downy",[5]; [15],40
same,"Plant response rating, Bromegrass, Downy",[5]; [16],85
same,"Plant response rating, Bromegrass, Downy",[5]; [17],30
same,"Plant response rating, Bromegrass, Downy",[5]; [18],0
same,"Plant response rating, Bromegrass, Downy",[5]; [19],5
same,"Plant response rating, Bromegrass, Downy",[5]; [20],5
same,"Bromegrass, Downy plant response rating",[5]; [21],50
same,"Plant response rating, Velvetleaf",[6]; [14],90
same,"Plant response rating, Velvetleaf",[6]; [16],100
same,"Plant response rating, Velvetleaf",[6]; [17],100
same,"Plant response rating, Velvetleaf",[6]; [18],85
same,"Plant response rating, Velvetleaf",[6]; [19],100
same,"Plant response rating, Velvetleaf",[6]; [20],100
same,Velvetleaf plant response rating,[6]; [21],100
same,"Plant response rating, Surinam Grass",[7]; [14],65
same,"Plant response rating, Surinam Grass",[7]; [16],95
same,"Plant response rating, Surinam Grass",[7]; [17],65
same,"Plant response rating, Surinam Grass",[7]; [18],0
same,"Plant response rating, Surinam Grass",[7]; [19],15
same,"Plant response rating, Surinam Grass",[7]; [20],30
same,Surinam Grass plant response rating,[7]; [21],45
same,"Plant response rating, Goosegrass",[8]; [14],85
same,"Plant response rating, Goosegrass",[8]; [15],98
same,"Plant response rating, Goosegrass",[8]; [16],100
same,"Plant response rating, Goosegrass",[8]; [17],95
same,"Plant response rating, Goosegrass",[8]; [18],98
same,"Plant response rating, Goosegrass",[8]; [19],100
same,"Plant response rating, Goosegrass",[8]; [20],100
same,Goosegrass plant response rating,[8]; [21],100
same,"Plant response rating, Wheat",[9]; [14],30
same,"Plant response rating, Wheat",[9]; [16],60
same,"Plant response rating, Wheat",[9]; [17],35
same,"Plant response rating, Wheat",[9]; [18],0
same,"Plant response rating, Wheat",[9]; [19],0
same,"Plant response rating, Wheat",[9]; [20],10
same,Wheat plant response rating,[9]; [21],25
same,"Plant response rating, Blackgrass",[10]; [14],10
same,"Plant response rating, Blackgrass",[10]; [15],40
same,"Plant response rating, Blackgrass",[10]; [16],60
same,"Plant response rating, Blackgrass",[10]; [17],15
same,"Plant response rating, Blackgrass",[10]; [18],0
same,"Plant response rating, Blackgrass",[10]; [19],0
same,"Plant response rating, Blackgrass",[10]; [20],30
same,Blackgrass plant response rating,[10]; [21],70
same,"Plant response rating, Morningglory",[11]; [14],40
same,"Plant response rating, Morningglory",[11]; [15],65
same,"Plant response rating, Morningglory",[11]; [16],90
same,"Plant response rating, Morningglory",[11]; [17],60
same,"Plant response rating, Morningglory",[11]; [18],75
same,"Plant response rating, Morningglory",[11]; [19],90
same,"Plant response rating, Morningglory",[11]; [20],95
same,Morningglory plant response rating,[11]; [21],95
same,"Plant response rating, Barnyardgrass",[12]; [22],90
same,Barnyardgrass plant response rating,[12]; [23],100
same,"Plant response rating, Barnyardgrass",[12]; [24],80
same,"Plant response rating, Barnyardgrass",[12]; [25],90
same,"Plant response rating, Pigweed",[13]; [22],100
same,Pigweed plant response rating,[13]; [23],100
same,"Plant response rating, Pigweed",[13]; [24],100
same,"Plant response rating, Pigweed",[13]; [25],100
